Laboratory results reported in US20070270418A1, “Inhibitors of P38 and Methods of Using the Same” (priority 2003, published 2007).
Like-named read-outs stand apart in the source and are kept apart here.

Experiments:
[1] = target: T1, p38α (Homo sapiens, UniProt Q16539); test: p38 MAP Kinase assay, ATF2 phosphorylation (ELISA); assay type: biochemical; conditions: 40 μM ATP
T1 construct: p38 MAP Kinases are recombinant human full-length proteins with an amino-terminal GST fusion; GST (N); purchased Upstate (Charlottesville, Va.); host or cells: E. coli
T1 sequence (Q16539 whole entry, the tested form may be a part): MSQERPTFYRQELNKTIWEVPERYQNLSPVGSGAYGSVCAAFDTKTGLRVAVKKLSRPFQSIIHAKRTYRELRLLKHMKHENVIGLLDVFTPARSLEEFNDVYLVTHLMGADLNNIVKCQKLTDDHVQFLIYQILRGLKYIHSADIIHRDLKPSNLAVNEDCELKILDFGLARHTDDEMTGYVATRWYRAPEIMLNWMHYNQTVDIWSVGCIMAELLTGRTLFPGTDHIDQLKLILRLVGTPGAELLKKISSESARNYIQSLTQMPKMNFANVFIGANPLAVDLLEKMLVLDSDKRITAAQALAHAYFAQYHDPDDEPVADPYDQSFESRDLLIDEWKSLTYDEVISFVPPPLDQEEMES
Source text: Compounds of the invention are screened for the ability to inhibit ATF2 phosphorylation by p38 MAP Kinase in vitro. The ability of compounds to inhibit ATF2 phosphorylation in this in vitro assay is correlated with the inhibition of p38 MAP Kinase and TNFα expression in vivo, and is therefore an indicator of potential in vivo therapeutic activity (Raingeaud, J., et al, J. Biol. Chem., 270: 7420-7426, 1995, Brinkman, M. N., et al, J. Bil. Chem. 274: 30882-30886, 1999 and Fuchs, S. Y. et al, J. Biol. Chem. 275: 12560-12564, 2000).
All kinases and the substrate ATF2 are acquired from Upstate (Charlottesville, Va.). p38 MAP Kinases are recombinant human full-length proteins with an amino-terminal GST fusion, expressed in and purified from E. coli. ATF2 is a GST fusion protein containing amino acids 19-96 of human ATF2 expressed in E. coli. All proteins were aliquoted and stored at −80° C.
p38 MAP Kinase assays are performed using an assay buffer containing 25 mM HEPES, pH 7.5, 10 mM MgCl2, 2 mM DTT, 20 mM β-glycerophosphate, 0.1 mM Na3VO4, 40 μM ATP and 1.25 μM of ATF2, together with 6 ng of p38α protein, 12 ng p38β protein, 1.5 ng p38γ, or 0.4 ng JNK2α2. Compounds are serially diluted in DMSO and 2 μL of test compound at 25× final concentration is used. The vehicle control receives DMSO only. Test compounds are pre-incubated with 20 μl of enzyme in kinase buffer (25 mM HEPES, pH 7.5, 10 mM MgCl2, 2 mM DTT, 20 mM 3-glycerophosphate and 0.1 mM Na3VO4) at room temperature for 15 minutes. […] The reactions are incubated for 30 minutes at 37° C. and terminated by the addition of 18 μl of 200 mM EDTA. An ELISA method is used to measure the phosphorylation of ATF2 at Thr 69. High binding 96-well plates (Corning 3369) are coated with 50 μl of kinase reaction for 1 hour at 37° C. The coated plates are washed with 200 μl washing buffer (25 mM Tris HCl, pH 8.3, 192 mM glycine, 0.1% SDS and 0.05% Tween-20) three times. The plates are then washed three times with SuperBlock in TBS (Pierce, 37535). After blocking, plates are incubated with 50 μl of rabbit anti-phospho-ATF2 antibody (Cell Signaling, 9221 L, 1:500) for 30 minutes at 37° C. Plates are washed three times with washing buffer prior to incubation with 50 μl HRP-conjugated goat anti-rabbit antibody (Cell Signaling, 7074, 1:500) for 30 minutes at 37° C. Plates are then washed three times with washing buffer before incubation with 50 μl of Ultra TMB-ELISA (Pierce, 34028) for 8 minutes at room temperature. Finally, 50 μl of phosphoric acid (1 M) is added to stop reactions and plate absorbance is read at 450 nm on a SpectraMax 250 plate reader.

[2] = tested on: TNFα release from THP-1 cells; test: TNFα release from LPS-stimulated THP-1 cells; assay type: cell-based
Source text: Compounds of the invention are screened for the ability to inhibit TNFα and IL-1β release from THP-1 cells stimulated with lipopolysaccharide (LPS) in vitro. The ability of compounds to inhibit TNFα and IL-1β release in this in vitro assay is correlated with the inhibition of p38 activity and TNFα and IL-1β expression in vivo, and is therefore an indicator of potential in vivo therapeutic activity (Lee J. C. et al, Ann. N.Y. Acad. Sci. 696: 149-170, 1993 and Nature, 372: 739-746, 1994).
THP-1 cells from ATCC (TIB202) are maintained at 37° C., 5% CO2 in RPMI 1640 media (MediaTech, Herndon, Va.) containing 4.5 g/L glucose, supplemented with 10% fetal bovine serum, 1% penicillin/streptomycin and 50 μM β-mercaptoethanol.
Test compounds are initially dissolved in RPMI media with 1% DMSO (v/v). Compounds are then serially diluted in RPMI media for all subsequent dilutions. The assay is performed under sterile conditions. THP-1 cells at a culture density of 6-8×10^5 cells/ml are collected and resuspended in the RPMI media at 10^6 cells/ml. 100 μl of resuspended cells are added to each well, which contain 100 μl of a test compound. Test compounds are prepared at twice the final concentration. Final DMSO concentration is no more than 0.5% (v/v). Cells are preincubated with compound for 30 minutes at 37° C., 5% CO2 prior to stimulation with lipopolysaccharide (LPS) (Sigma L-2880, 4 mg/ml stock in PBS). The final LPS concentration in each well is 10 or 30 μg/ml for TNFα and IL-1β release, respectively. Unstimulated control cell suspensions receive PBS vehicle only. Cell mixtures are incubated for 18 or 48 hours for TNFα and IL-1β release, respectively. 150 μl of supernatants are taken and transferred to a fresh plate and stored at −20° C. until further analysis.

[3] = Homo sapiens, THP-1, 18 h, read-out: TNFα (THP-1) IC50 (nM)
[4] = Homo sapiens, THP-1, 18 h, LPS 10 μg/ml, 18 hours, read-out: TNFα (THP-1) IC50
[5] = LPS 10 μg/ml, 18 hours, read-out: TNFα (THP-1) IC50

IC50 [1] [nM] | IC50 [2, 4] [nM] | IC50 [2, 5] [nM] | SMILES | IC50 [2, 3] [nM]
1.3 | 6.5 |  | CC(=O)N1CCC(Nc2nccc(-c3c(-c4ccc(F)cc4Cl)nc4occn34)n2)CC1 [CCCIX] | 
2.3 | 38.5 |  | CC(=O)N1CCC(Nc2nccc(-c3c(-c4ccccc4Cl)nc4occn34)n2)CC1 [CCCI] | 
10 | 24 |  | Cc1ccccc1-c1nc2occn2c1-c1ccnc(NC2CCNCC2)n1 [CCCVIII] | 
43.3 | 136 |  | CN(C)CC(C)(C)CNc1nccc(-c2c(-c3cccc(C(F)(F)F)c3)nc3occn23)n1 [CCCVII] | 
4.9 | 82.6 |  | CC(=O)N1CCC(Nc2nccc(-c3c(-c4cccc(C(F)(F)F)c4)nc4occn34)n2)CC1 [CCCVI] | 
4.8 | 41 |  | CC(=O)N1CCC(Nc2nccc(-c3c(-c4ccccc4C)nc4occn34)n2)CC1 [CCCV] | 
21.2 | 111 |  | FC(F)(F)c1cccc(-c2nc3occn3c2-c2ccnc(NC3CCNCC3)n2)c1 [CCCXIII] | 
14.5 | 24.6 |  | Clc1ccccc1-c1nc2occn2c1-c1ccnc(NC2CCNCC2)n1 [CCCXIV] | 
0.3 | 17.7 |  | CS(=O)(=O)N1CCC(Nc2nccc(-c3c(-c4ccc(F)cc4Cl)nc4occn34)n2)CC1 [CCCXIX] | 
18 | 611 |  | CC(C)(C)OC(=O)N1CCC(Nc2nccc(-c3c(-c4cccc(C(F)(F)F)c4)nc4occn34)n2)CC1 [CCCXI] | 
1 | 18.2 |  | CS(=O)(=O)N1CCC(Nc2nccc(-c3c(-c4ccccc4Cl)nc4occn34)n2)CC1 [CCCXVIII] | 
3 | 13.7 |  | CC(=O)N1CCC(Nc2nccc(-c3c(-c4ccc(F)cc4F)nc4occn34)n2)CC1 [CCCXVII] | 
0.9 | 33.7 |  | CS(=O)(=O)N1CCC(Nc2nccc(-c3c(-c4cccc(C(F)(F)F)c4)nc4occn34)n2)CC1 [CCCXVI] | 
26 | 55.9 |  | CC(C)[C@@H](CO)Nc1nccc(-c2c(-c3cccc(F)c3)nc3sccn23)n1 [CCIX] | 
75.7 | 101 |  | CC(C)[C@@H](CO)Nc1nccc(-c2c(-c3ccc(Br)cc3)nc3sccn23)n1 [CCI] | 
1.65 | 6.27 |  | CC(=O)N1CCC(Nc2nccc(-c3c(-c4ccc(F)cc4)nc4sccn34)n2)CC1 [CCLIII] | 
2.02 | 21.9 |  | O=C(c1ccc(F)cc1)N1CCC(Nc2nccc(-c3c(-c4ccc(F)cc4)nc4sccn34)n2)CC1 [CCLII] | 
30.2 | 345 |  | Fc1ccc(CN2CCC(Nc3nccc(-c4c(-c5ccc(F)cc5)nc5sccn45)n3)CC2)cc1 [CCLIV] | 
22.2 | 47.7 |  | C[C@@H](Nc1nccc(-c2c(-c3ccc(F)cc3)nc3sccn23)n1)C(N)=O [CCLIX] | 
14.3 | 84.9 |  | OC(CNc1nccc(-c2c(-c3ccc(F)cc3)nc3sccn23)n1)COc1ccccc1 (stereo not drawn) [CCLI] | 

IC50 [1] [nM] | IC50 [2, 4] [nM] | IC50 [2, 5] [nM] | SMILES | IC50 [2, 3] [nM]
57.7 | 643 |  | Fc1ccc(-c2nc3sccn3c2-c2ccnc(NCCN3CCN(Cc4ccccc4)CC3)n2)cc1 [CCLVIII] | 
25.4 | 38.6 |  | CC(CN(C)C)Nc1nccc(-c2c(-c3ccc(F)cc3)nc3sccn23)n1 (stereo not drawn) [CCLVII] | 
1.07 | 9.68 |  | O=C(Nc1ccc(F)cc1)N1CCC(Nc2nccc(-c3c(-c4ccc(F)cc4)nc4sccn34)n2)CC1 [CCLVI] | 
2.12 | 10.8 |  | CCNC(=O)N1CCC(Nc2nccc(-c3c(-c4ccc(F)cc4)nc4sccn34)n2)CC1 [CCLV] | 
5.85 | 23.3 |  | CC(C)(CNC(=O)OC(C)(C)C)CNc1nccc(-c2c(-c3ccc(F)cc3)nc3sccn23)n1 [CCLXIII] | 
29.8 | 196 |  | CC(C)(C)OC(=O)N1CCCC(Nc2nccc(-c3c(-c4ccc(F)cc4)nc4sccn34)n2)C1 (stereo not drawn) [CCLXII] | 
7.26 | 27.5 |  | CC(C)(C)OC(=O)N1CCCC1CNc1nccc(-c2c(-c3ccc(F)cc3)nc3sccn23)n1 (stereo not drawn) [CCLXIV] | 
1.31 | 3.08 |  | CS(=O)(=O)N1CCC(Nc2nccc(-c3c(-c4ccc(F)cc4)nc4sccn34)n2)CC1 [CCLXI] | 
75.7 |  | 100 | CC(C)[C@@H](CO)Nc1nccc(-c2c(-c3ccc(Br)cc3)nc3sccn23)n1 [CCLXXI] | 
147 |  | 58.7 | Cc1ccc(-c2nc3sccn3c2-c2ccnc(N[C@H](CO)C(C)C)n2)cc1 [CCLXXVII] | 
 | > 10000 |  | COc1cccc(-c2nc3sccn3c2-c2nc(SC)ncc2-c2ccccc2)c1 [CCXXXIV] | 
650 |  |  | CN1CCCC1CCNc1nccc(-c2c(-c3ccc(F)cc3)nc3occn23)n1 (stereo not drawn) [LXI] | 
664 |  |  | Cc1csc(Nc2nccc(-c3c(-c4ccc(F)cc4)nc4occn34)n2)n1 [LXXII] | 
529 |  |  | CSc1nc(Nc2nccc(-c3c(-c4ccc(F)cc4)nc4occn34)n2)n[nH]1 [LXXVII] | 
3330 |  |  | CNCCNc1nccc(-c2c(-c3ccc(F)cc3)nc3occn23)n1 [XCII] | 
969 |  |  | CN(CCO)c1nccc(-c2c(-c3ccc(F)cc3)nc3occn23)n1 [XCVI] | 
866 |  |  | NC1CCN(c2nccc(-c3c(-c4ccc(F)cc4)nc4occn34)n2)CC1 [XC] | 
4430 |  |  | CS(=O)(=O)c1nccc(-c2c(-c3ccc(F)cc3)nc3occn23)n1 [XI, 6-(4-fluorophenyl)-5-[2-(methylsulfonyl)pyrimidin-4-yl]imidazo[2,1-b][1,3]oxazole] | 
13 |  |  | OCC(CO)Nc1nccc(-c2c(-c3ccc(F)cc3)nc3occn23)n1 [XIII] | 

SMILES | IC50 [1] [nM] | IC50 [2, 4] [nM] | IC50 [2, 5] [nM] | IC50 [2, 3] [nM]
Clc1ccccc1-c1nc2occn2c1-c1ccnc(N[C@H]2CN3CCC2CC3)n1 [CCCIII] | 12.5 |  |  | 9
Cc1ccccc1-c1nc2occn2c1-c1ccnc(N[C@H]2CN3CCC2CC3)n1 [CCCII] | 13.8 |  |  | 5.5
Fc1ccc(-c2nc3occn3c2-c2ccnc(N[C@H]3CN4CCC3CC4)n2)c(F)c1 [CCCIV] | 3.8 |  |  | 1.7
CN1[C@@H]2CC[C@H]1C[C@@H](Nc1nccc(-c3c(-c4ccc(F)cc4F)nc4occn34)n1)C2 [CCCXII] | 2.6 |  |  | 1.2
Cc1ccccc1-c1nc2occn2c1-c1ccnc(NC2C[C@H]3CC[C@@H](C2)N3C)n1 (stereo partly drawn) [CCCXX] | 13.9 |  |  | 23.7
CN1[C@@H]2CC[C@H]1C[C@@H](Nc1nccc(-c3c(-c4cccc(C(F)(F)F)c4)nc4occn34)n1)C2 [CCCX] | 9.3 | 47.9 |  | 
